Values of other authors in article PMC2217447 (The Journal of General Physiology, 2004).
Entries after “also recorded” stand apart in the source; their conditions may differ. Where two headings read alike, the source gives them in different places.

Key:
Shaker B K^+ channels [1] = biological target: T1, Shaker B K^+ channels (Drosophila melanogaster, UniProt P08510); conditions: external TEA, ref Gómez-Lagunas, 1997
Shaker B K^+ channels [2] = biological target: T1, Shaker B K^+ channels; conditions: for effect of external K^+ on block of Shaker (in words): ref Goldstein and Miller, 1993

T1 sequence (P08510 whole entry): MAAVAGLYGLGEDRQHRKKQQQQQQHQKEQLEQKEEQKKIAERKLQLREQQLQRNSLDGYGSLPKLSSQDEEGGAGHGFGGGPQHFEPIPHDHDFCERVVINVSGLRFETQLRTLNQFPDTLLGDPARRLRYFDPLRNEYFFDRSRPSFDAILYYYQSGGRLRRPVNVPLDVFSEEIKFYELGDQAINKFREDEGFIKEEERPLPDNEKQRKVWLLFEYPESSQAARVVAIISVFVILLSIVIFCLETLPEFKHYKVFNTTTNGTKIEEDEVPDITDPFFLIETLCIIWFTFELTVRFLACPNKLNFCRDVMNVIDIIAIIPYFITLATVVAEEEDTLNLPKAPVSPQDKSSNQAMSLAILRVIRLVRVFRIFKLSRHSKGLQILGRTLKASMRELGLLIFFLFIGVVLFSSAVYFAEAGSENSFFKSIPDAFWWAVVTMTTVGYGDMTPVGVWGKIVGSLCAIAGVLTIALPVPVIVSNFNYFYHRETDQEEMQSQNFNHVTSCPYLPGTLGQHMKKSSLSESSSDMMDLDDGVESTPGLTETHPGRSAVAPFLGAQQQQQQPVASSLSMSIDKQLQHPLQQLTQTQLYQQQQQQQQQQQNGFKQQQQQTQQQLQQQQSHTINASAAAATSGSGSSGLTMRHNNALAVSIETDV

## CC[N+](CC)(CC)CC [TEAo, tetraethylammonium]
Shaker B K^+ channels [1]; Shaker channels
  change of binding affinity in 0 K^+ (in words): did not find a significant change in the binding affinity
Shaker B K^+ channels [1]
  affinity (Kd) for inhibiting drop of GK vs block of IK (in words): basically the same affinity (Kd) with which it blocks the K^+ current (IK)
  effect on collapse of GK in 0 K^+ (in words): impedes the drop of GK in 0 K^+; also recorded: impedes the collapse of GK
Shaker B K^+ channels [1]; listed as TEA
  effect on collapse of GK in 0 K^+ (in words): the collapse of GK is prevented

## Agitoxin2 [AgTx2]
Shaker B K^+ channels [2]; ref Ranganathan et al., 1996
  effect of external K^+ on binding to Shaker (in words): destabilized by Ko ^+ ions

## ChTx R25Q: mutant R25Q (a glutamine substituting arginine in position 25) of ChTx
Shaker B K^+ channels [2]
  effect of external K^+ on block of Shaker (in words): destabilized by Ko ^+ ions; also recorded: decreased by Ko ^+

## Charybdotoxin [ChTx]
Shaker B K^+ channels [2]
  effect of external K^+ on block of Shaker (in words): not altered by external K^+ ions; also recorded: not destabilized by Ko ^+
